Legend:
[1] = biological target: CRBN-DDB1 protein complex (Homo sapiens, UniProt Q96SW2); assay: Fluorescence Polarization (FP) assay, displacement of Cy5-labelled thalidomide; conditions: 25 nM CRBN-DDB1, 5 nM Cy5-labelled thalidomide, read-out: CRBN binding Ki
Method: CRBN-DDB1 protein complex was mixed with Cy5-labelled thalidomide and a compound to be tested (the “test compound”). […] The test solution was added to a 384-well assay plate.
The plate was spun-down (1 min, 1000 rpm, 22° C.) and then shaken using a VibroTurbulator for 10 min at room temperature (20-25° C.), with the frequency set to level 3. The assay plate with protein and the tracer was incubated for 60 min at room temperature (20-25° C.) prior to read-out with a plate reader.
The FP experiment was carried out with various concentrations of the test compounds in order to measure Ki values.

[2] = tested on: IKZF1; assay: IKZF1 degradation assay, H929 cell line (Western blot densitometry); type: cell-based; conditions: 20 μM
Method: Cells were seeded on 6- or 12-well plates, and the compounds to be tested were added at the desired concentration range. […] After 6 or 24 h incubation (3TC, 5% CO2), cells were harvested, washed and cell lysates were prepared using RIPA lysis buffer. The amount of protein was determined via BCA assay, and the appropriate quantity was then loaded on the precast gel for the protein separation. After primary and secondary Ab staining, the membranes were washed and signals developed. The densitometry analysis was implemented to obtain the numeric values used later in the protein level evaluation process. […] The treatment with all compounds was carried out for 24 h.

Chain of CRBN-DDB1 protein complex (Q96SW2 whole entry): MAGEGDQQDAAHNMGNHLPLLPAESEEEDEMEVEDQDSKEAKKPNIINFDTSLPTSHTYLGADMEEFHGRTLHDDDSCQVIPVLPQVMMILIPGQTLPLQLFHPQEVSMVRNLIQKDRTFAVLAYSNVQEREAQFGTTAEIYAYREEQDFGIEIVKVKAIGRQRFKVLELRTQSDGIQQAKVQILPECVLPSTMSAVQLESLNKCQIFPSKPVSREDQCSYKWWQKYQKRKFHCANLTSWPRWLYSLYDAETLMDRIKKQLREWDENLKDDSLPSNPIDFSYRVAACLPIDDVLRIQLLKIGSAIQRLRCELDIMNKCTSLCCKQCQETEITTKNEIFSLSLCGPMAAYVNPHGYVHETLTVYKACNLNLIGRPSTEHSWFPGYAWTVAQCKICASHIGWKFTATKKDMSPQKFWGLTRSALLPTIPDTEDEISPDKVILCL
Chain of CRBN-DDB1 protein complex (Q16531 whole entry partner): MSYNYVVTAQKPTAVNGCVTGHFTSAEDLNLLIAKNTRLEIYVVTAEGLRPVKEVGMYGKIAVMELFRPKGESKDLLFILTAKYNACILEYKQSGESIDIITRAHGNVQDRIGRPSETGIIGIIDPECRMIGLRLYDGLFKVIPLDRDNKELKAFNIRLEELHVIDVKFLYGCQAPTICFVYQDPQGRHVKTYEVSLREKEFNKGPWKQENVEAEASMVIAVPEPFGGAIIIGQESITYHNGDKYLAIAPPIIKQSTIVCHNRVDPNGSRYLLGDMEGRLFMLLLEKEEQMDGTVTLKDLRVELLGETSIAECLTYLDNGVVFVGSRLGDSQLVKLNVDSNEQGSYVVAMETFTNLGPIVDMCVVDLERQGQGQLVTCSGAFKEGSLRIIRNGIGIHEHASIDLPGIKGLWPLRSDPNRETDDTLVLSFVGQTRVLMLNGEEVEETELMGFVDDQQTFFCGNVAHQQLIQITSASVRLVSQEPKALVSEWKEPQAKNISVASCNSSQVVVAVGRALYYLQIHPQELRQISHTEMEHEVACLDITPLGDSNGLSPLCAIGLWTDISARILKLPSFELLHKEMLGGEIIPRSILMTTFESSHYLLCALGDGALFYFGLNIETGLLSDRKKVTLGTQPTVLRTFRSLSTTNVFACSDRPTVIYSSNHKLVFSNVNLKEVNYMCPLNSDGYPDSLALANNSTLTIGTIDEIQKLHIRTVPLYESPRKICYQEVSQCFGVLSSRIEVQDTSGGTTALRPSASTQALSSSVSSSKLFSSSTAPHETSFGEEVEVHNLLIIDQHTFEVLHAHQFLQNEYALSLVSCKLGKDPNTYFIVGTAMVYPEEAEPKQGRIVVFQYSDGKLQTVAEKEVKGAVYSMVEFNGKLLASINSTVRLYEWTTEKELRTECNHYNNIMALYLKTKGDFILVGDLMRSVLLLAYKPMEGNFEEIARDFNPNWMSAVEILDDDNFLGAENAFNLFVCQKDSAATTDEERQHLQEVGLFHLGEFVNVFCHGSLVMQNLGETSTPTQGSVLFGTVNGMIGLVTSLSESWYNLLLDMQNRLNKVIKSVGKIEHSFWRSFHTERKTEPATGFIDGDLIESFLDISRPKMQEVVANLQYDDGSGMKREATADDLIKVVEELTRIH

CC(C)(C)OC(=O)Nc1sccc1C(=O)NC1CCC(=O)NC1=O (stereo not drawn) [Compound 1, tert-butyl (3-((2,6-dioxopiperidin-3-yl)carbamoyl)thiophen-2-yl)carbamate]
Ki [1]: 10 to 50 µM
% of IKZF1 protein reduction, IKZF 1 (24 H, 20 μM) [2]: ≤25% (≤25% for 0-25% of IKZF1 protein reduction)

C[C@H](O)C(=O)Nc1sc(Cl)cc1C(=O)NC1CCC(=O)NC1=O (stereo partly drawn) [Compound 17, 5-chloro-N-(2,6-dioxopiperidin-3-yl)-2-[(2S)-2-hydroxypropanamido]thiophene-3-carboxamide]
Ki [1]: 10 to 50 µM
% of IKZF1 protein reduction, IKZF 1 (24 H, 20 μM) [2]: ≤25% (≤25% for 0-25% of IKZF1 protein reduction)

CC(=O)Nc1ccsc1C(=O)NC1CCC(=O)NC1=O (stereo not drawn) [Compound 7, N-(2,6-dioxopiperidin-3-yl)-3-acetamidothiophene-2-carboxamide]
Ki [1]: 5 to 10 µM
% of IKZF1 protein reduction, IKZF 1 (24 H, 20 μM) [2]: ≤25% (≤25% for 0-25% of IKZF1 protein reduction)

CC(=O)Nc1sc(C(F)(F)F)cc1C(=O)NC1CCC(=O)NC1=O (stereo not drawn) [Compound 42, N-(2,6-dioxopiperidin-3-yl)-2-acetamido-5-(trifluoromethyl)thiophene-3-carboxamide]
Ki [1]: 5 to 10 µM
% of IKZF1 protein reduction, IKZF 1 (24 H, 20 μM) [2]: ≤25% (≤25% for 0-25% of IKZF1 protein reduction)

CC(=O)Nc1scc(Cl)c1C(=O)NC1CCC(=O)NC1=O (stereo not drawn) [Compound 43, 4-chloro-N-(2,6-dioxopiperidin-3-yl)-2-acetamidothiophene-3-carboxamide]
Ki [1]: 10 to 50 µM
% of IKZF1 protein reduction, IKZF 1 (24 H, 20 μM) [2]: ≤25% (≤25% for 0-25% of IKZF1 protein reduction)

CC(=O)Nc1sc(C2CC2)cc1C(=O)NC1CCC(=O)NC1=O (stereo not drawn) [Compound 44, 5-cyclopropyl-N-(2,6-dioxopiperidin-3-yl)-2-acetamidothiophene-3-carboxamide]
Ki [1]: < 5 µM
% of IKZF1 protein reduction, IKZF 1 (24 H, 20 μM) [2]: ≤25% (≤25% for 0-25% of IKZF1 protein reduction)

Nc1sccc1C(=O)NC1CCC(=O)NC1=O (stereo not drawn) [Compound 36, 2-amino-N-(2,6-dioxopiperidin-3-yl)thiophene-3-carboxamide]
Ki [1]: < 5 µM
% of IKZF1 protein reduction, IKZF 1 (24 H, 20 μM) [2]: ≤25% (≤25% for 0-25% of IKZF1 protein reduction)

O=C1CCC(NC(=O)c2cc(Cl)sc2NC(=O)Cc2ccccc2)C(=O)N1 (stereo not drawn) [Compound 46, 5-chloro-N-(2,6-dioxopiperidin-3-yl)-2-(2-phenylacetamido)thiophene-3-carboxamide]
Ki [1]: 5 to 10 µM
% of IKZF1 protein reduction, IKZF 1 (24 H, 20 μM) [2]: ≤25% (≤25% for 0-25% of IKZF1 protein reduction)

CNC(=O)c1cc(C(=O)NC2CCC(=O)NC2=O)c(NC(C)=O)s1 (stereo not drawn) [Compound 14, 5-acetamido-N^4-(2,6-dioxopiperidin-3-yl)-5-acetamido-N^2-methylthiophene-2,4-dicarboxamide]
Ki [1]: 5 to 10 µM
% of IKZF1 protein reduction, IKZF 1 (24 H, 20 μM) [2]: ≤25% (≤25% for 0-25% of IKZF1 protein reduction)

O=C1CCC(NC(=O)c2cc(Cl)sc2NC(=O)C2CC2)C(=O)N1 (stereo not drawn) [Compound 6, 5-chloro-2-cyclopropaneamido-N-(2,6-dioxopiperidin-3-yl)thiophene-3-carboxamide]
Ki [1]: < 5 µM
% of IKZF1 protein reduction, IKZF 1 (24 H, 20 μM) [2]: ≤25% (≤25% for 0-25% of IKZF1 protein reduction)

CC(C)(C)OC(=O)Nc1ncc(C(=O)NC2CCC(=O)NC2=O)s1 (stereo not drawn) [Compound 71, tert-butyl (5-((2,6-dioxopiperidin-3-yl)carbamoyl)thiazol-2-yl)carbamate]
Ki [1]: < 5 µM
% of IKZF1 protein reduction, IKZF 1 (24 H, 20 μM) [2]: ≤25% (≤25% for 0-25% of IKZF1 protein reduction)

CNc1sc(Cl)cc1C(=O)NC1CCC(=O)NC1=O (stereo not drawn) [Compound 16, 5-chloro-N-(2,6-dioxopiperidin-3-yl)-2-(methylamino)thiophene-3-carboxamide]
Ki [1]: < 5 µM
% of IKZF1 protein reduction, IKZF 1 (24 H, 20 μM) [2]: ≤25% (≤25% for 0-25% of IKZF1 protein reduction)

O=C1CCC(NC(=O)c2csc(-c3ccccc3)c2)C(=O)N1 (stereo not drawn) [Compound 57, N-(2,6-dioxopiperidin-3-yl)-5-phenylthiophene-3-carboxamide]
Ki [1]: < 5 µM
% of IKZF1 protein reduction, IKZF 1 (24 H, 20 μM) [2]: ≤25% (≤25% for 0-25% of IKZF1 protein reduction)

CC(=O)Nc1sccc1C(=O)N(C)C1CCC(=O)NC1=O (stereo not drawn) [Compound 5, N-(2,6-dioxopiperidin-3-yl)-2-acetamido-N-methylthiophene-3-carboxamide]
Ki [1]: 10 to 50 µM
% of IKZF1 protein reduction, IKZF 1 (24 H, 20 μM) [2]: ≤25% (≤25% for 0-25% of IKZF1 protein reduction)

COc1ncc(C(=O)NC2CCC(=O)NC2=O)s1 (stereo not drawn) [Compound 75, N-(2,6-dioxopiperidin-3-yl)-2-methoxythiazole-5-carboxamide]
Ki [1]: 10 to 50 µM
% of IKZF1 protein reduction, IKZF 1 (24 H, 20 μM) [2]: ≤25% (≤25% for 0-25% of IKZF1 protein reduction)

COc1sc(Cl)cc1C(=O)NC1CCC(=O)NC1=O (stereo not drawn) [Compound 37, 5-chloro-N-(2,6-dioxopiperidin-3-yl)-2-methoxythiophene-3-carboxamide]
Ki [1]: < 5 µM
% of IKZF1 protein reduction, IKZF 1 (24 H, 20 μM) [2]: ≤25% (≤25% for 0-25% of IKZF1 protein reduction)

CSc1ncc(C(=O)NC2CCC(=O)NC2=O)s1 (stereo not drawn) [Compound 76, N-(2,6-dioxopiperidin-3-yl)-2-(methylthio)thiazole-5-carboxamide]
Ki [1]: 10 to 50 µM
% of IKZF1 protein reduction, IKZF 1 (24 H, 20 μM) [2]: ≤25% (≤25% for 0-25% of IKZF1 protein reduction)

CC(=O)Nc1sc(C2CC2)c(Cl)c1C(=O)NC1CCC(=O)NC1=O (stereo not drawn) [Compound 19, 4-chloro-5-cyclopropyl-N-(2,6-dioxopiperidin-3-yl)-2-acetamidothiophene-3-carboxamide]
Ki [1]: 5 to 10 µM
% of IKZF1 protein reduction, IKZF 1 (24 H, 20 μM) [2]: ≤25% (≤25% for 0-25% of IKZF1 protein reduction)

CC(=O)Nc1sc(Cl)cc1C(=O)NC1CCC(=O)NC1=O (stereo not drawn) [Compound 12, 5-Chloro-N-(2,6-dioxopiperidin-3-yl)-2-acetamidothiophene-3-carboxamide]
Ki [1]: 5 to 10 µM
% of IKZF1 protein reduction, IKZF 1 (24 H, 20 μM) [2]: ≤25% (≤25% for 0-25% of IKZF1 protein reduction)

CS(=O)(=O)Nc1sccc1C(=O)NC1CCC(=O)NC1=O (stereo not drawn) [Compound 13, N-(2,6-dioxopiperidin-3-yl)-2-methanesulfonamidothiophene-3-carboxamide]
Ki [1]: 5 to 10 µM
% of IKZF1 protein reduction, IKZF 1 (24 H, 20 μM) [2]: ≤25% (≤25% for 0-25% of IKZF1 protein reduction)

CC(C)(C)c1ncc(C(=O)NC2CCC(=O)NC2=O)s1 (stereo not drawn) [Compound 73, 2-(tert-butyl)-N-(2,6-dioxopiperidin-3-yl)thiazole-5-carboxamide]
Ki [1]: 10 to 50 µM
% of IKZF1 protein reduction, IKZF 1 (24 H, 20 μM) [2]: ≤25% (≤25% for 0-25% of IKZF1 protein reduction)

Nc1sc(Cl)cc1C(=O)NC1CCC(=O)NC1=O (stereo not drawn) [Compound 40, 2-amino-5-chloro-N-(2,6-dioxopiperidin-3-yl)thiophene-3-carboxamide]
Ki [1]: < 5 µM
% of IKZF1 protein reduction, IKZF 1 (24 H, 20 μM) [2]: ≤25% (≤25% for 0-25% of IKZF1 protein reduction)

CC(=O)Nc1cc(Cl)sc1C(=O)NC1CCC(=O)NC1=O (stereo not drawn) [Compound 18, 5-chloro-N-(2,6-dioxopiperidin-3-yl)-3-acetamidothiophene-2-carboxamide]
Ki [1]: 10 to 50 µM
% of IKZF1 protein reduction, IKZF 1 (24 H, 20 μM) [2]: ≤25% (≤25% for 0-25% of IKZF1 protein reduction)

COc1csc(NC(C)=O)c1C(=O)NC1CCC(=O)NC1=O (stereo not drawn) [Compound 8, N-(2,6-dioxopiperidin-3-yl)-2-acetamido-4-methoxythiophene-3-carboxamide]
Ki [1]: 5 to 10 µM
% of IKZF1 protein reduction, IKZF 1 (24 H, 20 μM) [2]: ≤25% (≤25% for 0-25% of IKZF1 protein reduction)

From US20230065745A1, “PIPERIDINE-2,6-DIONE DERIVATIVES WHICH BIND TO CEREBLON, AND METHODS OF USE THEREOF” (Captor Therapeutics S.A., priority 2019, published 2023)
